Values joined by “and” are separate entries in the source; they are usually repeats but may differ in a detail not shown here. Equal values may be shown once.
Experiments:
[1] = test system: activated AMPK; assay: Western immunoblot for activated (phospho-Thr172) AMPK in muscle cells; assay type: cell-based, mouse; conditions: for FOLD AMPK ACTIVATION (OVER CONTROL): cells treated 30 minutes at 37° C; for effect on AMPK activity (in words): no concentration stated
Experimental: (§1) The levels of Glut-4, activated AMPK and activated Akt were measured in mouse muscle cells C2C12 (from ATTC) and in primary culture of human skeletal muscle cells (Clonetics, Inc.) using Western immunoblotting. C2C12 cells were plated at 1.5×1-exp5 cells per mL/well (12-well plate) in standard cell culture medium (DMEM supplemented with 10% fetal bovine serum (FBS), 25 mM glucose, 20 mM Hepes, 4 mM glutamine and 2 mM sodium pyruvate. 48 hrs after the plating, medium was changed to differentiation medium (DMEM supplemented with 5 mM of glucose and 0.5% of FBS) for next 3-4 days to stimulate the formation of myotubes. Three hours before the treatment with selected agents, cells were washed with PBS and transferred to PBS supplemented with 5 mM of glucose.
(§2) Human skeletal muscle cells (HSKM) were cultured in SKBM-2 mediums provided by Clonetics. 48 hrs after cell plating, medium was changed to SKBM medium to stimulate differentiation of the cells to myotubes. When differentiated, the myotubes were transferred to PBS supplemented with 5 mM glucose for three hrs before the treatment.
(§3) Analysis of C2C12 cells for the level of activated AMPK, Akt and the level of GLUT-4 was performed in the same experimental system. The cells were treated for 30 minutes at 37° C. […] Subsequently, 20 μg per sample of sample protein was used for Western analysis using NuPage 10% Bis/Tris gels (Invitrogen). After exposure of membranes to primary and secondary antibodies AMPK, AKT or Glut-4 was detected using ECL-Plus (Amersham) following producer's instruction. Chemilumiscent signals were detected by using ChemiDoc system from Biorad. Intensity of detected signals were analyzed and measured using Quantity One software (Biorad). Alternatively, the level of phosphorylated AMPK was detected using ECL kit from Amersham and short exposure to Kodak films.
(§4) Experimental setup: Cell Culture was followed by treatment with selected contemplated compounds, which was followed by cell lysis and western blot analysis for AMPK, Akt, GLUT4, total AMPK, and total Akt. Signals were acquired accordingly.

[2] = test system: activated Akt; assay: Western immunoblot for activated (phospho-Ser473) Akt in muscle cells; assay type: cell-based, mouse; conditions: for FOLD AKT ACTIVATION (OVER CONTROL): cells treated 30 minutes at 37° C; for effect on Akt activity (in words): no concentration stated
Experimental: as §1, §2, §3, §4

[3] = test system: GLUT-4; assay: Western immunoblot for GLUT-4 protein level in C2C12 cells; assay type: cell-based, mouse
Experimental: as §1
Analysis of C2C12 cells for the level of activated AMPK, Akt and the level of GLUT-4 was performed in the same experimental system. The cells were treated for 30 minutes at 37° C. After the treatment, the cells were washed with ice-cold PBS and lysed with 80 μl of lysis buffer/well (M-PER buffer from Pierce supplemented with protease and phosphatase inhibitor mix (Calbiochem) for 10 minutes on ice. Next, the plates were transferred to −20° C. to improve the lysis of the cells. Next cells were sonicated for 5 minutes and lysate was transferred to Eppendorf tubes and centrifuged at 14,000 rpm for 10 minutes. Supernatants were collected in fresh Eppendorf tubes and kept on ice to measure the amount of total proteins. 3 μl of each lysate was used to measure the protein concentration using standard Bradford method (Biorad). Subsequently, 20 μg per sample of sample protein was used for Western analysis using NuPage 10% Bis/Tris gels (Invitrogen). After exposure of membranes to primary and secondary antibodies AMPK, AKT or Glut-4 was detected using ECL-Plus (Amersham) following producer's instruction. Chemilumiscent signals were detected by using ChemiDoc system from Biorad. Intensity of detected signals were analyzed and measured using Quantity One software (Biorad). Alternatively, the level of phosphorylated AMPK was detected using ECL kit from Amersham and short exposure to Kodak films.
Experimental setup: Cell Culture was followed by treatment with selected contemplated compounds, which was followed by cell lysis and western blot analysis for AMPK, Akt, GLUT4, total AMPK, and total Akt. Signals were acquired accordingly. Primary antibodies used in these studies are the following: Anti-phospho-AMPK (Thr172), mouse, rabbit IgG, from Cell Signaling, #2531; Anti-phospho-Akt (Ser473), mouse, rabbit IgG, Cell Signaling, #9271; Anti-Glut-4, mouse, rabbit IgG, Calbiochem, #400064; Anti-AMPK (total), mouse, rabbit IgG, Cell Signaling, #2532; Anti-Akt (total), mouse, rabbit IgG, Cell Signaling, #9272.
The effects of kinetin, N^2-Acetyl-Guanosine and N^2-Acetyl-Guanine on GLUT-4 protein level in C2C12 cells were investigated following the same experimental design as described for AMPK and AKT. Anti-Glut-4 antibody used in this study was from Calbiochem. […] Table 3 refers to multiple independent experiments where multiple identical concentrations for the same reagents are indicated.

[4] = test system: muscle cells; assay: Total glucose uptake in vitro with fluorescent glucose analog; assay type: cell-based; conditions: for AVERAGE (N = 3) fluorescence of fluorescent glucose in the cells / FOLD CHANGE IN TOTAL GLUCOSE UPTAKE (OVER CONTROL): 30 minutes at 37 C
Experimental: Total glucose uptake was measured using fluorescent glucose analog from Molecular Probes. Briefly, muscle cells were treated with kinetin, N^2-Acetyl-Guanosine and N^2-Acetyl-Guanine for 30 minutes at 37 C first and subsequently, these cells were exposed to 500 μM of fluorescent glucose analog for 5 minutes at room temperature. Next, cells were washed twice with cold Krebs-Hepes buffered solution and fixed in 70% ethanol in water. Fluorescence of fluorescent glucose in the cells was measured using fluorescent plate reader at 480/530 nm (excitation/emission). […] Table 4 refers to multiple independent experiments where multiple identical concentrations for the same reagents are indicated.

[5] = concentration 0.15 (unit not given)
[6] = concentration 0.3 (unit not given)
[7] = concentration 0.75 (unit not given)
[8] = concentration 1.5 (unit not given)
[9] = concentration 3.75 (unit not given)
[10] = concentration 7.5 (unit not given)

## CC(=O)Nc1nc2c(ncn2[C@@H]2O[C@H](CO)[C@@H](O)[C@H]2O)c(=O)[nH]1 [N^2-Acetyl-Guanosine]
[1]; 0.3 microM
  FOLD AMPK ACTIVATION (OVER CONTROL): 3.75 fold
[1]; 0.8 microM
  FOLD AMPK ACTIVATION (OVER CONTROL): 2.20 fold
[1]; 1.5 microM
  FOLD AMPK ACTIVATION (OVER CONTROL): 4.28 fold
[1]; 2.0 microM
  FOLD AMPK ACTIVATION (OVER CONTROL): 2.20 fold
[1]; 7.5 microM
  FOLD AMPK ACTIVATION (OVER CONTROL): 1.71 fold
[1]; 37.5 microM
  FOLD AMPK ACTIVATION (OVER CONTROL): 2.28 fold
[1]
  effect on AMPK activity (in words): potent activators of AMPK
[2]; 0.1 microM
  FOLD AKT ACTIVATION (OVER CONTROL): 2.57 fold
[2]; 0.3 microM
  FOLD AKT ACTIVATION (OVER CONTROL): 1.92 fold and 2.57 fold
[2]; 0.8 microM
  FOLD AKT ACTIVATION (OVER CONTROL): 1.75 fold and 2.95 fold
[2]; 1.5 microM
  FOLD AKT ACTIVATION (OVER CONTROL): 1.55 fold
[2]; 2.0 microM
  FOLD AKT ACTIVATION (OVER CONTROL): 2.17 fold
[2]; 5.0 microM
  FOLD AKT ACTIVATION (OVER CONTROL): 1.23 fold
[2]; 7.5 microM
  FOLD AKT ACTIVATION (OVER CONTROL): 1.68 fold
[2]
  effect on Akt activity (in words): potent activators of AMPK as well as Akt
[3]
  effect on GLUT-4 protein level (in words): potently increase GLUT-4 protein level
[3]; 0.3 microM
  FOLD CHANGE IN GLUT-4 LEVEL (OVER CONTROL): 1.21 fold
[3]; 1.5 microM
  FOLD CHANGE IN GLUT-4 LEVEL (OVER CONTROL): 1.74 fold
[3]; 7.5 microM
  FOLD CHANGE IN GLUT-4 LEVEL (OVER CONTROL): 3.14 fold
[3]; 37.5 microM
  FOLD CHANGE IN GLUT-4 LEVEL (OVER CONTROL): 3.03 fold
[4]
  effect on glucose uptake in muscle cells in vitro (in words): potently enhance glucose uptake in muscle cells in vitro
[4]; [5]
  AVERAGE (N = 3) fluorescence of fluorescent glucose in the cells: 90.5 +/− 1.7
  FOLD CHANGE IN TOTAL GLUCOSE UPTAKE (OVER CONTROL): 1.94 fold
[4]; [6]
  AVERAGE (N = 3) fluorescence of fluorescent glucose in the cells: 44.1 +/− 0.7
  FOLD CHANGE IN TOTAL GLUCOSE UPTAKE (OVER CONTROL): 2.17 fold
[4]; [7]
  AVERAGE (N = 3) fluorescence of fluorescent glucose in the cells: 109.5 +/− 2.6
  FOLD CHANGE IN TOTAL GLUCOSE UPTAKE (OVER CONTROL): 2.35 fold
[4]; [8]
  AVERAGE (N = 3) fluorescence of fluorescent glucose in the cells: 54.3 +/− 0.9
  FOLD CHANGE IN TOTAL GLUCOSE UPTAKE (OVER CONTROL): 2.67 fold
[4]; [9]
  AVERAGE (N = 3) fluorescence of fluorescent glucose in the cells: 148.7 +/− 8.5
  FOLD CHANGE IN TOTAL GLUCOSE UPTAKE (OVER CONTROL): 3.18 fold
[4]; [10]
  AVERAGE (N = 3) fluorescence of fluorescent glucose in the cells: 61.7 +/− 1.3
  FOLD CHANGE IN TOTAL GLUCOSE UPTAKE (OVER CONTROL): 3.03 fold

## CC(=O)Nc1ccn([C@@H]2O[C@H](CO)[C@@H](O)[C@H]2O)c(=O)n1 [N^4-Acetyl-Cytidine]
[2]; 0.8 microM
  FOLD AKT ACTIVATION (OVER CONTROL): 2.45 fold
[2]; 2.0 microM
  FOLD AKT ACTIVATION (OVER CONTROL): 1.46 fold and 1.50 fold
[2]; 5.0 microM
  FOLD AKT ACTIVATION (OVER CONTROL): 1.64 fold and 1.36 fold

## CC(=O)Nc1ncnc2c1ncn2[C@@H]1O[C@H](CO)[C@@H](O)[C@H]1O [N^6-Acetyl-Adenosine]
[1]; 2.5 microM
  FOLD AMPK ACTIVATION (OVER CONTROL): 1.08 fold
[1]; 5.0 microM
  FOLD AMPK ACTIVATION (OVER CONTROL): 2.41 fold
[1]; 12.5 microM
  FOLD AMPK ACTIVATION (OVER CONTROL): 2.18 fold

## CN(CCOc1ccc(CC2SC(=O)NC2=O)cc1)c1ccccn1 (stereo not shown) [Rosiglitazone, reference compound]
[1]; 3.0 microM
  FOLD AMPK ACTIVATION (OVER CONTROL): 3.50 fold
[2]; 1.0 microM
  FOLD AKT ACTIVATION (OVER CONTROL): 2.83 fold
[2]; 9.0 microM
  FOLD AKT ACTIVATION (OVER CONTROL): 1.78 fold
[2]; 27.0 microM
  FOLD AKT ACTIVATION (OVER CONTROL): 0.71 fold
[3]; 9.0 microM
  FOLD CHANGE IN GLUT-4 LEVEL (OVER CONTROL): 3.61 fold
[3]; 27.0 microM
  FOLD CHANGE IN GLUT-4 LEVEL (OVER CONTROL): 3.19 fold

## C/C(=C\CNc1ncnc2nc[nH]c12)CO [Trans-Zeatin]
[1]; 1.0 microM
  FOLD AMPK ACTIVATION (OVER CONTROL): 2.33 fold
[1]; 10.0 microM
  FOLD AMPK ACTIVATION (OVER CONTROL): 4.27 fold
[2]; 1.0 microM
  FOLD AKT ACTIVATION (OVER CONTROL): 0.90 fold
[2]; 10.0 microM
  FOLD AKT ACTIVATION (OVER CONTROL): 0.86 fold

## C/C(=C\CNc1ncnc2[nH]cnc12)CO [Zeatin]
[1]; 1.0 microM
  FOLD AMPK ACTIVATION (OVER CONTROL): 2.33 fold and 2.15 fold
[1]; 10.0 microM
  FOLD AMPK ACTIVATION (OVER CONTROL): 2.04 fold
[1]
  effect on AMPK activity (in words): potent stimulator of AMPK
[2]; 1.0 microM
  FOLD AKT ACTIVATION (OVER CONTROL): 0.95 fold
[2]; 10.0 microM
  FOLD AKT ACTIVATION (OVER CONTROL): 1.36 fold
[2]
  effect on Akt activity (in words): not Akt

## Insulin
[2]; 0.10 nanoM
  FOLD AKT ACTIVATION (OVER CONTROL): 1.75 fold
[2]; 25.0 nanoM
  FOLD AKT ACTIVATION (OVER CONTROL): 3.40 fold
[2]; 50.0 nanoM
  FOLD AKT ACTIVATION (OVER CONTROL): 3.28 fold

— patent US20090208620A1, “Alimentary Compositions and Methods For Metabolic Modulation” (VDF FUTURECEUTICALS, INC., priority 2003, published 2009)
